Data taken from patent publication US5817455A, “Method for in vitro inactivation of RNase S” (Novagen, Inc., priority 1996, dated 1998).

Key:
Ribonuclease S = Ribonuclease S activity, degradation of yeast polymeric RNA (absorbance at 255 nm); format: biochemical, bovine; conditions: for effect on RNase S activity (in words): consecutive addition to S-protein + bS15 reaction mix; for Activity: initial velocity relative to S-protein (50 ng) plus S15 (10 μg) = 100%, consecutive addition of S-protein (50 ng), bS15 (approx. 5 μg), streptavidin (10 μg), S15 (5 μg), 75 ug/mL yeast RNA, pH 7.0, 25° C., 2 minutes
Method: Ribonuclease S activity was measured in terms of degradation of yeast polymeric RNA. Degradation was monitored as an increase in absorbance at 255 nm of the reaction cocktail. The reaction cocktail included 50 mM imidazole.HCl buffer, pH 7.0, 0.1 M NaCl, and 75 ug/mL yeast RNA, in a volume of 800 uL. The change in absorbance was monitored at 25° C. for 2 minutes following the consecutive addition of S-protein (50 ng), bS15 (approx. 5 μg), streptavidin (10 μg), and authentic S15 (5 μg).
For comparison, the degradative activity in a reaction mix containing S-protein (50 ng) plus S15 (10 μg) is defined to be 100%. […] The initial velocity of each reaction was determined from the initial slope of a plot of absorbance v. time.

S-protein = conditions: cited from earlier work

Substance	effect on RNase S activity (in words) (Ribonuclease S)	Activity (Ribonuclease S)	binding to S-protein compared with intact S-peptide (S-protein; truncated S-peptide, first 15 residues)	Kd (S-protein; S-peptide and S-protein, read-out: dissociation constant)
S15: truncated S-peptide formed from the first 15 residues of the S-peptide, SEQ ID NO:1 (KETAAAKFERQHMDS)	RNase S activity could be reconstituted	40%	binds equally well	–
S-peptide: residues 1-20 of RNase A, subtilisin cleavage product	–	–	–	1 nM
streptavidin	sufficient to inactivate RNase S	< 0.01%	–	–
